The results in this text go back to patent publication US9421209B2, “Kinase modulators” (Rhizen Pharmaceuticals SA, priority 2009, dated 2016).

For data set [1], the target named is P110 δ/Pi3K δ (Homo sapiens, UniProt O00329). The data set is described as follows: Fluorescent (HTRF) determination of PI3K enzyme activity, δ isoform. In kind it is biochemical. The arrangement: inhibition: dose or concentration left out as unconfirmed. In outline:
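IC50 fitted from percent inhibition relative to blank and enzyme-only wells. Human PI3Kδ converts PIP2 to PIP3 after addition of 400 μM ATP solution, 30 min at room temperature. Product read by time-resolved FRET after stop and 6–18 h dark incubation with detection reagents.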

Structures are written as SMILES. Where only a bound is given, the exact number is not on record here.

In general, melting point refers to the temperature, or range, at which the solid turns liquid. Usually inhibition stands for the relative decrease from the control value, in per cent.

P110 δ/Pi3K δ, sequence (O00329 whole entry, canonical isoform): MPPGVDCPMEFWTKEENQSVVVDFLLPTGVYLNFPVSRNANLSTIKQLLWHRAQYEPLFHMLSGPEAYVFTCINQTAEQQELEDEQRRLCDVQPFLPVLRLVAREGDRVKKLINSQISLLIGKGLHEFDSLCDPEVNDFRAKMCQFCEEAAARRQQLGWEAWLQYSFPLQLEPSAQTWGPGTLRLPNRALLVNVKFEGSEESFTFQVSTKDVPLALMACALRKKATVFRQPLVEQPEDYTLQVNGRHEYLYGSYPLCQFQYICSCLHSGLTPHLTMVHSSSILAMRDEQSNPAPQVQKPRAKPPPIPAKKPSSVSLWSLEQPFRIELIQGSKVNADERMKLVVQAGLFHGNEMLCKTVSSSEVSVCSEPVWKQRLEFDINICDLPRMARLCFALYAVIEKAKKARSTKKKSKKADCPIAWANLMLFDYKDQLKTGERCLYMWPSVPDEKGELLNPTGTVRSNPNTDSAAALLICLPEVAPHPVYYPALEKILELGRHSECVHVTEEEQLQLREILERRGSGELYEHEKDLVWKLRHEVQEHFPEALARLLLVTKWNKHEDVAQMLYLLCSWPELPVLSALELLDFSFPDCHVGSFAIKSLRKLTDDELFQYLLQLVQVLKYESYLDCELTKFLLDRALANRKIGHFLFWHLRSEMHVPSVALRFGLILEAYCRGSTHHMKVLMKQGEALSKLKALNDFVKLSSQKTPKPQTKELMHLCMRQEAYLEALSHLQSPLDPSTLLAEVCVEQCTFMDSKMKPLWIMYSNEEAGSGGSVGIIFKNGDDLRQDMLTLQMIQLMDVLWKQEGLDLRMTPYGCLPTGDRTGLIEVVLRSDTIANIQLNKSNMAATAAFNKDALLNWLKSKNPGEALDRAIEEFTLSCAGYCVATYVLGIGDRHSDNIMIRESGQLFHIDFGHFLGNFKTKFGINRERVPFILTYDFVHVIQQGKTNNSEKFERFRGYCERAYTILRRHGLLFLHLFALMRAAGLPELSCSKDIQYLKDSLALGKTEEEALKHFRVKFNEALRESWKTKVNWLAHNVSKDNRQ
P110 δ/Pi3K δ, sequence (P27986 whole entry partner, canonical isoform): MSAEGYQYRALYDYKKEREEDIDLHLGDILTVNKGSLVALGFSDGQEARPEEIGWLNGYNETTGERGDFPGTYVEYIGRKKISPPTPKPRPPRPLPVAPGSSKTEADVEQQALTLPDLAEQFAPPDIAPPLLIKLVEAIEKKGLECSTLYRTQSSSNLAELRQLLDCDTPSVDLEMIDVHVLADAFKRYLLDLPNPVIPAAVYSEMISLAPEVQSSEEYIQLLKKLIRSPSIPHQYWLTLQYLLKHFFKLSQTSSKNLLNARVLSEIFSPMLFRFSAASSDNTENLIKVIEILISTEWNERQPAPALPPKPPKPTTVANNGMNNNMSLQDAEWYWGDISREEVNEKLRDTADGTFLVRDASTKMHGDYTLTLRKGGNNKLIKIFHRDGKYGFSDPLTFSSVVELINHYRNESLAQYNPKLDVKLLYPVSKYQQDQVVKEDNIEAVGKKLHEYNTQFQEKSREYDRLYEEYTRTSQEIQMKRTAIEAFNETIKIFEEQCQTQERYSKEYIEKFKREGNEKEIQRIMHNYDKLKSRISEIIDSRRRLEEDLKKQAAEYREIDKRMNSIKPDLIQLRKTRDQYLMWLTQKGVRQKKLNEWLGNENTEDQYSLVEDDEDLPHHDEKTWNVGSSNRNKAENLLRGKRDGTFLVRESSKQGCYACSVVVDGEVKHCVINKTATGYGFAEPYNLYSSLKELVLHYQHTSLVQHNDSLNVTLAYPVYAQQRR

For `COc1ccc(-c2nn(C(C)c3oc4ccccc4c(=O)c3-c3cccc(F)c3)c3ncnc(N)c23)cc1Cl` (stereo not drawn) [Example 157, 2-(1-(4-amino-3-(3-chloro-4-methoxyphenyl)-1H-pyrazolo[3,4-d]pyrimidin-1-yl)ethyl)-3-(3-fluorophenyl)-4H-chromen-4-one], the melting point lay within 246 to 249 °C. This compound registered an inhibition in data set [1] below 50%.

In turn, `O=c1c(-c2cccc(F)c2)c(CNc2ncnc3[nH]cnc23)oc2ccccc12` [Example 46, 2-((9H-purin-6-ylamino)methyl)-3-(3-fluorophenyl)-4H-chromen-4-one] gave a melting point of 211 to 214 °C. The same compound gave an inhibition at 1 µM in data set [1] below 50%.

Take `CC(Sc1ncnc2[nH]cnc12)c1oc2ccc(Br)cc2c(=O)c1-c1ccccc1` (stereo not drawn) [Example 22, 2-(1-(9H-Purin-6-ylthio)ethyl)-6-bromo-3-phenyl-4H-chromen-4-one]: the melting point lay in the range of 234 to 237 °C. In addition, the inhibition at 1 µM in data set [1] is below 50%.

On to `CC(c1oc2ccccc2c(=O)c1-c1cccc(F)c1)n1nc(-c2ccc3cc(O)ccc3c2)c2c(N)ncnc21` (stereo not drawn) [Example 162, 2-(1-(4-amino-3-(6-hydroxynaphthalen-2-yl)-1H-pyrazolo[3,4-d]pyrimidin-1-yl)ethyl)-3-(3-fluorophenyl)-4H-chromen-4-one], for which the melting point lay within 281 to 285 °C. This compound registered an inhibition in data set [1] of 50 to 100%.

With `Cc1nn(C)c2cc(-c3nn(C(C)c4oc5ccccc5c(=O)c4-c4cccc(F)c4)c4ncnc(N)c34)ccc12` (stereo not drawn) [Example 170, 2-(1-(4-amino-3-(1,3-dimethyl-1H-indazol-6-yl)-1H-pyrazolo[3,4-d]pyrimidin-1-yl)ethyl)-3-(3-fluorophenyl)-4H-chromen-4-one], the melting point was in the range of 270 to 272 °C. The compound further displayed an inhibition in data set [1] of 50 to 100%.

Turning to `CC(c1oc2ccccc2c(=O)c1-c1cccc(F)c1)n1nc(-c2ccc3cc[nH]c3c2)c2c(N)ncnc21` (stereo not drawn) [Example 94, 2-(1-(4-amino-3-(1H-indol-6-yl)-1H-pyrazolo[3,4-d]pyrimidin-1-yl)ethyl)-3-(3-fluorophenyl)-4H-chromen-4-one], the melting point lay in the range of 222 to 225 °C. In addition, the inhibition in data set [1] was 50 to 100%.

Compound `CC(c1oc2ccccc2c(=O)c1-c1cccc(F)c1)n1nc(-c2cccc(OC(F)F)c2)c2c(N)ncnc21` (stereo not drawn) [Example 178, 2-(1-(4-amino-3-(3-(difluoromethoxy)phenyl)-1H-pyrazolo[3,4-d]pyrimidin-1-yl)ethyl)-3-(3-fluorophenyl)-4H-chromen-4-one] yielded a melting point of 176 to 179 °C. The compound also came in with an inhibition in data set [1] of 50 to 100%.

As to `CCC(c1oc2ccc(F)cc2c(=O)c1-c1ccccc1)n1cnc2c(N)ncnc21` (stereo not drawn) [Example 38, 2-(1-(6-amino-9H-purin-9-yl)propyl)-6-fluoro-3-phenyl-4H-chromen-4-one], the melting point is 266 to 272 °C. Also, the inhibition at 1 µM in data set [1] is below 50%.

The compound `O=c1c(-c2ccccc2)c(CNc2ncnc3[nH]cnc23)oc2ccc(Br)cc12` [Example 25, 2-((9H-purin-6-ylamino)methyl)-6-bromo-3-phenyl-4H-chromen-4-one] had a melting point of 151 to 154 °C. The same compound yielded an inhibition at 1 µM in data set [1] below 50%.

Compound `Nc1ncnc2c1cnn2Cc1oc2ccc(Br)cc2c(=O)c1-c1ccccc1` [Example 14, 2-((4-Amino-1H-pyrazolo[3,4-d]pyrimidin-1-yl)methyl)-6-bromo-3-phenyl-4H-chromen-4-one] gave a melting point of 236 to 240 °C. This compound also yielded an inhibition at 1 µM in data set [1] below 50%.

For the compound `Nc1cccc(-c2nn(Cc3oc4ccccc4c(=O)c3-c3ccccc3)c3ncnc(N)c23)c1` [Example 91, 2-((4-amino-3-(3-aminophenyl)-1H-pyrazolo[3,4-d]pyrimidin-1-yl)methyl)-3-phenyl-4H-chromen-4-one], the melting point was 157 to 159 °C. In data set [1], this compound gave an inhibition below 50%.

Take `O=c1c(-c2ccccc2)c(Cn2cnc3ccccc32)oc2ccccc12` [Example 7, 2-[(1H-benzo[d]imidazol-1-yl)methyl]-3-phenyl-4H-chromen-4-one]: the melting point lay within 186 to 191 °C. This compound also came in with an inhibition at 1 µM in data set [1] below 50%.
